Drawing on patent US20100160369A1, “S1P1 Agonists and Methods of Making And Using” (EXELIXIS, INC., priority 2008, published 2010), this text covers EC50 for 21 compounds.

Assay [1] deals with T1, S1P1 (Homo sapiens, UniProt P21453). The experiment in a line: DELFIA GTP-Eu Binding Assay (Assay 3b). Also on record: purchased Lonza; host or cells: CHO cell membranes. The assay is classed as biochemical. On the procedure: The DELFIA GTP-Eu binding assay (PerkinElmer) is a time-resolved fluorometric assay based on GDP-GTP exchange. CHO cell membranes (Lonza) expressing human S1P1 were incubated in 96-well filter plates (Pall, East Hills, N.Y.) in a final volume of 100 μL/well buffer containing 40 μg/mL membrane, 50 mM HEPES, 2 μM GDP, 10 mM MgCl2, 100 mM NaCl, 500 μg/mL Saponin and test compound. Test compounds were tested at maximum concentrations of 10 μM. Compounds were diluted (10 concentration points, 3-fold each) and added to the assay plate at a 1% final DMSO concentration. For each compound, there were duplicate assay plates and each assay plate had duplicate wells per concentration point. The plates were incubated for 30 min at room temperature on a plate shaker at low speed. GTP-Eu was added to each well (10 μL, 10 nM final concentration) and the plate was incubated for an additional 30 min with slow shaking The wells were washed with ice cold GTP washing buffer (3×150 μL) using a vacuum manifold and the assay plates read in an EnVision plate reader (PerkinElmer) at an excitation wavelength of 340 nm and an emission wavelength of 615 nm. To determine agonist activity, percent activity was calculated as [(test compound−background)/(positive control−background)*100], where background is the fluorescence in absence of compound and the positive control is the fluorescence from membranes incubated with 1 μM S1P (Avanti). The percent activities were plotted against compound concentration to determine IC50 or EC50 using XLFit (IDBS).
Assay 1 is the CNG cAMP Assay as described in Biological Example 1. Assay 2a and 2b are the Tango™ β-arrestin Recruitment Assay in HEK293 and U2OS cells, respectively, as described in Biological Example 2. Assay 3a is the hS1P1R GTPγS Binding Assay as described in Biological Example 3. Assay 3b is the GTP-Eu Binding Assay as described in Biological Example 3. EC50's were measured unless otherwise noted. […] In the table, “nt” means the Compound was not tested and “no” means the compound was tested but had no measurable activity under the assay conditions employed.
Target sequence in this assay (P21453 whole entry): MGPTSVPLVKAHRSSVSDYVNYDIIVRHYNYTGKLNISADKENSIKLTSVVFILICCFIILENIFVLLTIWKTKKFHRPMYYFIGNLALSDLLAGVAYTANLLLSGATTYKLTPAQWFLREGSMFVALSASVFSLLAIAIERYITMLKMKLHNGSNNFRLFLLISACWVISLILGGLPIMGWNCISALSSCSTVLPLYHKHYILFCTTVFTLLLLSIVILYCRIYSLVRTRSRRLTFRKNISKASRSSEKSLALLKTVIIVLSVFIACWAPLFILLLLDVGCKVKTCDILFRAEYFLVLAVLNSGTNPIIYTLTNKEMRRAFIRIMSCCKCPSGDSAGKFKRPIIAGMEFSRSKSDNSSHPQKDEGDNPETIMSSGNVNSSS

Assay [2] concerns the target T1, S1P1. The experiment in a line: Tango β-arrestin Recruitment Assay in HEK293 cells (Assay 2a). In kind it is cell-based. Particulars: Tango β-arrestin Recruitment Assay, read-out: Assay 2a EC50. The arrangement: linker with TEV protease (N1a) cleavage site (C); host or cells: HEK293, transiently transfected. In a few lines: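 Agonist-driven β-arrestin2–TEV recruitment releases tTA to drive luciferase in transiently transfected HEK293 cells. Ten 3-fold dilutions from 10 μM top (1% DMSO), 16–18 h at 37 °C; EC50 fitted to percent activity versus DMSO background and 5 μM S1P efficacy control.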
Target sequence in this assay (P21453 whole entry): as above
Target sequence in this assay (P32121 whole entry partner): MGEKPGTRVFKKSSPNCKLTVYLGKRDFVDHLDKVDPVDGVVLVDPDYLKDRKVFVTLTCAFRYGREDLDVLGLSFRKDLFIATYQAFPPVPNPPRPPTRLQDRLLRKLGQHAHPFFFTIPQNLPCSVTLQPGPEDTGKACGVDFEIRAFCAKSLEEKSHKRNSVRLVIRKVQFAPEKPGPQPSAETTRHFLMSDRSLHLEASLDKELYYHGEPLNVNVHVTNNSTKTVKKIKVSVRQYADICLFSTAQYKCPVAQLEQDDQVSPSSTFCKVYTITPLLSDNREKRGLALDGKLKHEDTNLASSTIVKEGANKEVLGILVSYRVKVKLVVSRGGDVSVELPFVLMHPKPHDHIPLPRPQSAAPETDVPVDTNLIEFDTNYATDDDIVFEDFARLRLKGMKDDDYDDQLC

Assay [3] deals with T1, S1P1. The assay can be described thus: CNG cAMP Assay (Assay 1). In kind it is cell-based. The arrangement: host or cells: HEK293 cells expressing the CNG channel. Particulars: read-out: Assay 1 EC50. In a few lines:
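cAMP-gated CNG membrane-potential read-out (350/590 nm, T90/T0 ratio) in S1P1/CNG HEK293 cells after 90 min with compound plus NECA 500 nM, S1P 10 nM (EC95), Ro 20-1724 25 μM. Ten 3-fold points from 10 μM, 1.8% DMSO; percent activity vs NECA-only control gives EC50.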
Target sequence in this assay (P21453 whole entry): as the sequence (P21453 whole entry) above

Where [4] appears, read: relative EC50 was measured (footnote 1), read-out: Assay 3b Relative EC50.
Where [5] appears, read: footnote 1: Relative EC50 was measured, read-out: Assay 3b Relative EC50.

With `O=C(O)CCc1ccc(-c2noc(-c3cn4cc(C(F)(F)F)cc(Cl)c4n3)n2)c(Cl)c1` [Entry 1], the EC50 in assay [1] (read-out: Assay 3b EC50) is 500 to 1000 nM; in assay [2] it was at most 100 nM; in assay [3], at most 100 nM.

Consider `Cc1cc(CCC(=O)O)ccc1-c1noc(-c2cn3cc(C(F)(F)F)cc(Cl)c3n2)n1` [Entry 2], for which the half-maximal effective concentration (EC50) in assay [1] (read-out: Assay 3b EC50) was 100 to 500 nM; in assay [2], at most 100 nM; in assay [3], at most 100 nM.

In the case of `O=C(O)CCc1ccc(-c2noc(-c3cn4cc(C(F)(F)F)cc(Cl)c4n3)n2)cc1F` [Entry 6], the EC50 is 500 to 1000 nM in assay [1] (setting [4]), at most 100 nM in assay [2] and at most 100 nM in assay [3].

Regarding `O=C(O)CCc1cc(F)c(-c2noc(-c3cn4cc(C(F)(F)F)cc(Cl)c4n3)n2)c(F)c1` [Entry 10], the EC50 was 1000 to 5000 nM in assay [1] (setting [4]), 100 to 500 nM in assay [2] and at most 100 nM in assay [3].

In the case of `COc1cc(Cl)c2nc(-c3nc(-c4cc(F)c(CCC(=O)O)cc4Cl)no3)cn2c1` [Entry 61], the EC50 is 100 to 500 nM in assay [1] (read-out: Assay 3b EC50), at most 100 nM in assay [2] and at most 100 nM in assay [3].

For the compound `O=C(O)/C=C/c1cc(Cl)c(-c2noc(-c3cn4cc(C(F)(F)F)cc(Cl)c4n3)n2)cc1F` [Entry 63], the EC50 in assay [1] (read-out: Assay 3b EC50) was 100 to 500 nM; in assay [2] it was at most 100 nM; in assay [3] it was at most 100 nM.

Regarding `Cc1cc(C2CC2C(=O)O)ccc1-c1noc(-c2cn3cc(C(F)(F)F)cc(Cl)c3n2)n1` (stereo not drawn) [Entry 69], the concentration giving a half-maximal response (EC50) was 1000 to 5000 nM in assay [1] (setting [4]), 100 to 500 nM in assay [2] and at most 100 nM in assay [3].

For the compound `O=C(O)C1CC1c1ccc(-c2noc(-c3cn4cc(C(F)(F)F)cc(Cl)c4n3)n2)c(Cl)c1` (stereo not drawn) [Example 42, 2-(3-chloro-4-{5-[8-chloro-6-(trifluoromethyl)imidazo[1,2-a]pyridin-2-yl]-1,2,4-oxadiazol-3-yl}phenyl)cyclopropanecarboxylic acid], the EC50 in assay [1] (setting [4]) was 1000 to 5000 nM; in assay [2] it was 100 to 500 nM; in assay [3], at most 100 nM.

`O=C(O)C1CC1c1cc(Cl)c(-c2noc(-c3cn4cc(C(F)(F)F)cc(Cl)c4n3)n2)cc1F` (stereo not drawn) [Example 85, 2-(5-chloro-4-{5-[8-chloro-6-(trifluoromethyl)imidazo[1,2-a]pyridin-2-yl]-1,2,4-oxadiazol-3-yl}-2-fluorophenyl)cyclopropanecarboxylic acid]: the results for the EC50 in assay [1] (read-out: Assay 3b EC50), in assay [2] and in assay [3] were 100 to 500 nM, at most 100 nM and at most 100 nM, respectively.

In the case of `CS(=O)(=O)Nc1ccc(-c2noc(-c3cn4cc(C(F)(F)F)cc(Cl)c4n3)n2)c(Cl)c1` [Example 94, N-(3-chloro-4-{5-[8-chloro-6-(trifluoromethyl)imidazo[1,2-a]pyridin-2-yl]-1,2,4-oxadiazol-3-yl}phenyl)methanesulfonamide], the EC50 was 500 to 1000 nM in assay [1] (read-out: Assay 3b EC50), 100 to 500 nM in assay [2] and at most 100 nM in assay [3].

Regarding `O=C(O)CCc1ccc(-c2nnc(-c3cn4cc(C(F)(F)F)cc(Cl)c4n3)o2)c(Cl)c1` [Example 99], the concentration for a half-maximal effect (EC50) was 1000 to 5000 nM in assay [1] (setting [4]), 100 to 500 nM in assay [2] and at most 100 nM in assay [3].

As to `O=C(O)C1CN(Cc2ccc(-c3noc(-c4cn5cc(C(F)(F)F)cc(Cl)c5n4)n3)c(Cl)c2)C1` [Example 124, 1-[(3-chloro-4-{5-[8-chloro-6-(trifluoromethyl)imidazo[1,2-a]pyridin-2-yl]-1,2,4-oxadiazol-3-yl}phenyl)methyl]azetidine-3-carboxylic acid], the EC50 in assay [1] (setting [4]) fell in the range of 1000 to 5000 nM; in assay [2], 100 to 500 nM; in assay [3], 100 to 500 nM.

Consider `O=C(O)CCNCc1ccc(-c2noc(-c3cn4cc(C(F)(F)F)cc(Cl)c4n3)n2)c(Cl)c1` [Example 130, N-[(3-chloro-4-{5-[8-chloro-6-(trifluoromethyl)imidazo[1,2-a]pyridin-2-yl]-1,2,4-oxadiazol-3-yl}phenyl)methyl]-beta-alanine], for which the EC50 in assay [1] (read-out: Assay 3b EC50) is 500 to 1000 nM; in assay [2] it was 100 to 500 nM; in assay [3], at most 100 nM.

Turning to `O=C(O)CCNCc1ccc(-c2noc(-c3cn4cc(C(F)(F)F)cc(Br)c4n3)n2)c(Cl)c1` [Example 131, N-[(4-{5-[8-bromo-6-(trifluoromethyl)imidazo[1,2-a]pyridin-2-yl]-1,2,4-oxadiazol-3-yl}-3-chlorophenyl)methyl]-beta-alanine], the values for the concentration for a half-maximal effect (EC50) in assay [1] (read-out: Assay 3b EC50), in assay [2] and in assay [3] were 1000 to 5000 nM, 100 to 500 nM and at most 100 nM, respectively.

For the compound `O=C(O)C1CN(Cc2ccc(-c3noc(-c4cn5cc(C(F)(F)F)cc(Br)c5n4)n3)c(Cl)c2)C1` [Example 132, 1-[(4-{5-[8-bromo-6-(trifluoromethyl)imidazo[1,2-a]pyridin-2-yl]-1,2,4-oxadiazol-3-yl}-3-chlorophenyl)methyl]azetidine-3-carboxylic acid], the results for the half-maximal effective concentration (EC50) in assay [1] (read-out: Assay 3b EC50), in assay [2] and in assay [3] were 1000 to 5000 nM, 100 to 500 nM and at most 100 nM, respectively.

For the compound `O=C(O)CC(O)c1ccc(-c2noc(-c3cn4cc(C(F)(F)F)cc(Cl)c4n3)n2)c(Cl)c1` (stereo not drawn) [Example 139, 3-(3-chloro-4-{5-[8-chloro-6-(trifluoromethyl)imidazo[1,2-a]pyridin-2-yl]-1,2,4-oxadiazol-3-yl}phenyl)-3-hydroxypropanoic acid], the EC50 in assay [1] (setting [5]) was 100 to 500 nM; in assay [2], at most 100 nM; in assay [3], at most 100 nM.

Regarding `CC(C)Cc1cc(Cl)c2nc(-c3nc(-c4cc(F)c(CCC(=O)O)cc4Cl)no3)cn2c1` [Example 149, 3-(5-chloro-4-{5-[8-chloro-6-(2-methylpropyl)imidazo[1,2-a]pyridin-2-yl]-1,2,4-oxadiazol-3-yl}-2-fluorophenyl)propanoic acid], the EC50 in assay [1] (setting [5]), in assay [2] and in assay [3] was at most 100 nM in each case.

In the case of `Cc1cc(C(C)CC(=O)O)ccc1-c1noc(-c2cn3cc(C(F)(F)F)cc(Br)c3n2)n1` (stereo not drawn) [Example 153, 3-(4-{5-[8-bromo-6-(trifluoromethyl)imidazo[1,2-a]pyridin-2-yl]-1,2,4-oxadiazol-3-yl}-3-methylphenyl)butanoic acid], the concentration for a half-maximal effect (EC50) was 500 to 1000 nM in assay [1] (setting [5]), 100 to 500 nM in assay [2] and at most 100 nM in assay [3].

Take `CC(CC(=O)O)c1ccc(-c2noc(-c3cn4cc(C(F)(F)F)cc(Cl)c4n3)n2)c(Cl)c1` (stereo not drawn) [Example 172, 3-(3-chloro-4-{5-[8-chloro-6-(trifluoromethyl)imidazo[1,2-a]pyridin-2-yl]-1,2,4-oxadiazol-3-yl}phenyl)butanoic acid]: the EC50 in assay [1] (read-out: Assay 3b EC50) is 1000 to 5000 nM; in assay [2], 100 to 500 nM; in assay [3] it was at most 100 nM.

Regarding `NCC(O)COc1cc(Cl)c(-c2noc(-c3cn4cc(C(F)(F)F)cc(Cl)c4n3)n2)cc1Cl` (stereo not drawn) [Example 226, 1-amino-3-[(2,5-dichloro-4-{5-[8-chloro-6-(trifluoromethyl)imidazo[1,2-a]pyridin-2-yl]-1,2,4-oxadiazol-3-yl}phenyl)oxy]propan-2-ol], the 50% effective concentration (EC50) in assay [1] (read-out: Assay 3b EC50) was 500 to 1000 nM; in assay [2], at most 100 nM; in assay [3], at most 100 nM.

Consider `O=C(O)CCc1cc(Cl)c(-c2nc(-c3cn4cc(C(F)(F)F)cc(Br)c4n3)no2)cc1F` [Example 238, 3-(4-{3-[8-bromo-6-(trifluoromethyl)imidazo[1,2-a]pyridin-2-yl]-1,2,4-oxadiazol-5-yl}-5-chloro-2-fluorophenyl)propanoic acid], for which the EC50 in assay [1] (read-out: Assay 3b EC50) was 100 to 500 nM; in assay [2], at most 100 nM; in assay [3], at most 100 nM.
